According to ChEMBL document CHEMBL3593229, “Identification of a potent 5-phenyl-thiazol-2-ylamine-based inhibitor of FLT3 with activity against drug resistance-conferring point mutations” (Eur J Med Chem, 2015):
Active and inactive are the calls of the source. The rule behind the calls is not given here.

Key:
[1] = molecular target: Serine/threonine-protein kinase Nek2 (Homo sapiens) (UniProt P51955); assay: Inhibition of human NEK2 at 0.1 uM relative to control
[2] = molecular target: Aurora kinase A (Homo sapiens) (UniProt O14965); assay: Inhibition of human AURKA at 0.1 uM relative to control
[3] = test system: Receptor-type tyrosine-protein kinase FLT3 (Homo sapiens), P36888 [F691L]
[4] = Half life in Sprague-Dawley rat at 10 mg/kg, po; type: ADME, organism-based; conditions: in vivo
[5] = molecular target: Tyrosine-protein kinase Lyn (Homo sapiens) (UniProt P07948); assay: Inhibition of human LYNA at 0.1 uM relative to control
[6] = molecular target: Serine/threonine-protein kinase mTOR (Homo sapiens) (UniProt P42345); assay: Inhibition of human mTOR at 0.1 uM relative to control
[7] = molecular target: Vascular endothelial growth factor receptor 2 (Homo sapiens, UniProt P35968); conditions: 0.1 uM
Description: Inhibition of human KDR at 0.1 uM relative to control

[8] = molecular target: Angiopoietin-1 receptor (Homo sapiens) (UniProt Q02763); assay: Inhibition of human TEK at 0.1 uM relative to control
[9] = molecular target: Serine/threonine-protein kinase Sgk3 (Homo sapiens) (UniProt Q96BR1); assay: Inhibition of human SGKL at 0.1 uM relative to control
[10] = test system: RAF proto-oncogene serine/threonine-protein kinase (Homo sapiens), P04049 [Y340D,Y341D]; assay: Inhibition of human RAF1 Y340D/Y341D double mutant at 0.1 uM relative to control
[11] = molecular target: Tyrosine-protein kinase Blk (Homo sapiens) (UniProt P51451); assay: Inhibition of human BLK at 0.1 uM relative to control
[12] = molecular target: Inhibitor of nuclear factor kappa-B kinase subunit epsilon (Homo sapiens) (UniProt Q14164); assay: Inhibition of human IKKepsilon at 0.1 uM relative to control
[13] = molecular target: Mitogen-activated protein kinase 14 (Homo sapiens) (UniProt Q16539); assay: Inhibition of human MAPK14 at 0.1 uM relative to control
[14] = molecular target: Proto-oncogene tyrosine-protein kinase receptor Ret (Homo sapiens) (UniProt P07949); assay: Inhibition of human RET at 0.1 uM relative to control
[15] = AUC (0 to infinity) in Sprague-Dawley rat at 10 mg/kg, po; type: ADME, organism-based; parameters: dose 10 mg/kg, time infinity, route oral; conditions: in vivo
[16] = molecular target: Serine/threonine-protein kinase MRCK alpha (Homo sapiens) (UniProt Q5VT25); assay: Inhibition of human MRCKA at 0.1 uM relative to control
[17] = molecular target: Ribosomal protein S6 kinase alpha-5 (Homo sapiens) (UniProt O75582); assay: Inhibition of human MSK1 at 0.1 uM relative to control
[18] = Volume of distribution at steady state in ICR mouse at 2 mg/kg, iv; type: ADME, organism-based; conditions: in vivo, read-out: Vdss
[19] = molecular target: Tyrosine-protein kinase HCK (Homo sapiens) (UniProt P08631); assay: Inhibition of human HCK at 0.1 uM relative to control
[20] = molecular target: Non-receptor tyrosine-protein kinase TYK2 (Homo sapiens) (UniProt P29597); assay: Inhibition of human TYK2 at 0.1 uM relative to control
[21] = molecular target: Serine/threonine-protein kinase PLK1 (Homo sapiens) (UniProt P53350); assay: Inhibition of human PLK1 at 0.1 uM relative to control
[22] = Plasma clearance in Sprague-Dawley rat at 2 mg/kg, iv; type: ADME, organism-based
[23] = molecular target: Tyrosine-protein kinase JAK2 (Homo sapiens) (UniProt O60674); assay: Inhibition of human JAK2 at 0.1 uM relative to control
[24] = molecular target: Hepatocyte growth factor receptor (Homo sapiens) (UniProt P08581); assay: Inhibition of human MET at 0.1 uM relative to control
[25] = test system: Proto-oncogene tyrosine-protein kinase receptor Ret (Homo sapiens), P07949 [Y791F]; assay: Inhibition of human RET Y791F mutant at 0.1 uM relative to control
[26] = Cmax in Sprague-Dawley rat at 10 mg/kg, po; type: ADME, organism-based; parameters: dose 10 mg/kg, route oral; conditions: in vivo
[27] = molecular target: Serine/threonine-protein kinase Chk1 (Homo sapiens) (UniProt O14757); assay: Inhibition of human CHK1 at 0.1 uM relative to control
[28] = molecular target: Receptor-type tyrosine-protein kinase FLT3 (Homo sapiens, UniProt P36888, ITD); assay: Inhibition of FLT3 ITD mutant (unknown origin) phosphorylation expressed in HEK293T cells preincubated for 1 hr followed by FLT3 ligand addition for 5 mins by Western blot analysis; type: cell-based, HEK-293T
[29] = molecular target: Ribosomal protein S6 kinase alpha-3 (Homo sapiens) (UniProt P51812); assay: Inhibition of human RSK2 at 0.1 uM relative to control
[30] = molecular target: Receptor-type tyrosine-protein kinase FLT3 (Homo sapiens, UniProt P36888, F691L); assay: Inhibition of FLT3 ITD F691L mutant (unknown origin) phosphorylation expressed in HEK293T cells preincubated for 1 hr followed by FLT3 ligand addition for 5 mins by Western blot analysis; type: cell-based, HEK-293T
MV4-11 [31] = assay: Antitumor activity against human MV4-11 cells xenografted in nude mouse assessed as tumor growth inhibition at 10 mg/kg, po qd administered on day 1 to 5 measured during compound dosing; type: functional, organism-based
[32] = test system: Receptor-type tyrosine-protein kinase FLT3 (Homo sapiens), P36888 [D835V]
[33] = Volume of distribution at steady state in Sprague-Dawley rat at 2 mg/kg, iv; type: ADME, organism-based; conditions: in vivo, read-out: Vdss
Mus musculus [34] = assay: Antitumor activity against human MOLM13 cells xenografted in SCID mouse assessed as increase in survival at 25 mg/kg, po qd administered on day 8 to 12 relative to vehicle-treated control; type: functional, MOLM-13
[35] = test system: Receptor-type tyrosine-protein kinase FLT3 (Homo sapiens), P36888 [UNDEFINED MUTATION]; conditions: MOLM-13
Description: Inhibition of FLT3 ITD heterozygous mutant in human MOLM-13 cells assessed as cell growth inhibition after 72 hrs by MTS assay

[36] = molecular target: Dual specificity mitogen-activated protein kinase kinase 1 (Homo sapiens) (UniProt Q02750); assay: Inhibition of human MEK1 at 0.1 uM relative to control
Mus musculus [37] = assay: Antitumor activity against human MOLM13 cells xenografted in SCID mouse assessed as increase in survival at 10 mg/kg, po qd administered on day 1 to 5 relative to vehicle-treated control; type: functional, MOLM-13
[38] = AUC (0 to infinity) in ICR mouse at 10 mg/kg, po; type: ADME, organism-based; parameters: dose 10 mg/kg, time infinity, route oral; conditions: in vivo
[39] = Cmax in ICR mouse at 10 mg/kg, po; type: ADME, organism-based; parameters: dose 10 mg/kg, route oral; conditions: in vivo
[40] = molecular target: Aurora kinase B (Homo sapiens) (UniProt Q96GD4); assay: Inhibition of human AURKB at 0.1 uM relative to control
MV4-11 [41] = assay: Antitumor activity against human MV4-11 cells xenografted in nude mouse assessed as tumor growth inhibition at 25 mg/kg, po qd administered on day 8 to 12 measured during compound dosing; type: functional, organism-based

Sequence of Aurora kinase A (Homo sapiens) (O14965 whole entry): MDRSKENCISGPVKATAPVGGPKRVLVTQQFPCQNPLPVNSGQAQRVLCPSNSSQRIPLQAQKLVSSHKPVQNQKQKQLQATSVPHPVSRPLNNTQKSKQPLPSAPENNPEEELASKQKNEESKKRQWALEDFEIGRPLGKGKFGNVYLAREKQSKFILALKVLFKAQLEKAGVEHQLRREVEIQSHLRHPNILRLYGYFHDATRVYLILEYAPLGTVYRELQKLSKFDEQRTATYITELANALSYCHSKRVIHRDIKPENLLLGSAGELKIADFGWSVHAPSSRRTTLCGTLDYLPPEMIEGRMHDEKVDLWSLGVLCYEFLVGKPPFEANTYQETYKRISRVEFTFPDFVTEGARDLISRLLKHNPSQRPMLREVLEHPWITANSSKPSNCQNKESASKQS
Sequence of Tyrosine-protein kinase Blk (Homo sapiens) (P51451 2-505 limits assumed): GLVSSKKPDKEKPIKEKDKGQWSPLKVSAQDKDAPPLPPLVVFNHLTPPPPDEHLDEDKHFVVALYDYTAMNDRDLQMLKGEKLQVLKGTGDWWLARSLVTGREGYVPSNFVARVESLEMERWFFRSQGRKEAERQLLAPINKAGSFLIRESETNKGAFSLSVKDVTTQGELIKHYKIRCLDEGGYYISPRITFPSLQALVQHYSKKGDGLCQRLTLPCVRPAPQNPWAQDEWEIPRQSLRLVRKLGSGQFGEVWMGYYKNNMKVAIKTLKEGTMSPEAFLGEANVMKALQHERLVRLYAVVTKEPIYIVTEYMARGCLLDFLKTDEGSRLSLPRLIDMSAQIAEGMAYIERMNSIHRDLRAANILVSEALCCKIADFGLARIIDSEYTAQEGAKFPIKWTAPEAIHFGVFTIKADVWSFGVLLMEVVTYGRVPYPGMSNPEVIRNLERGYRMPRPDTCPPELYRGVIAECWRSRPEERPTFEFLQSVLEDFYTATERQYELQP
Sequence of Ribosomal protein S6 kinase alpha-3 (Homo sapiens) (P51812 whole entry): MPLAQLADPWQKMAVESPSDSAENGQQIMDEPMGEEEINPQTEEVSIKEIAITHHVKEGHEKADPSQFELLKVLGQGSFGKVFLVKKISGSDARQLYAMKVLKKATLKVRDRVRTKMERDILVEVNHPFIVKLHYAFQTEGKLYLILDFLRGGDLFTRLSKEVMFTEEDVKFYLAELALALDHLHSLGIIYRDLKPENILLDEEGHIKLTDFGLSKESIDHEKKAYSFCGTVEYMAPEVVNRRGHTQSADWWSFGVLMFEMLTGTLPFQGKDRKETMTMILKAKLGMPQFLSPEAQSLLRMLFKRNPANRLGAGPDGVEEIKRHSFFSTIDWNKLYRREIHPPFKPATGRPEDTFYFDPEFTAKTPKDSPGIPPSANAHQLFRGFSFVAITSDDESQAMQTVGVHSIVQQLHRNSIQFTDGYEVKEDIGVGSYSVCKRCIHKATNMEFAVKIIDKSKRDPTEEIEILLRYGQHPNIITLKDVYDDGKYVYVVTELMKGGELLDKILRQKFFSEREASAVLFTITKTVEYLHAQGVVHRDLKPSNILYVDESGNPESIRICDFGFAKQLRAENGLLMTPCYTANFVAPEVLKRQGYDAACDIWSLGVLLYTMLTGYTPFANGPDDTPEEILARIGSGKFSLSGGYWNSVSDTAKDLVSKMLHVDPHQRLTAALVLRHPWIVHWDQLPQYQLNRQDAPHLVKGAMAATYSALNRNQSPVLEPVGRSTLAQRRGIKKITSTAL
Sequence of Serine/threonine-protein kinase Nek2 (Homo sapiens) (P51955 whole entry): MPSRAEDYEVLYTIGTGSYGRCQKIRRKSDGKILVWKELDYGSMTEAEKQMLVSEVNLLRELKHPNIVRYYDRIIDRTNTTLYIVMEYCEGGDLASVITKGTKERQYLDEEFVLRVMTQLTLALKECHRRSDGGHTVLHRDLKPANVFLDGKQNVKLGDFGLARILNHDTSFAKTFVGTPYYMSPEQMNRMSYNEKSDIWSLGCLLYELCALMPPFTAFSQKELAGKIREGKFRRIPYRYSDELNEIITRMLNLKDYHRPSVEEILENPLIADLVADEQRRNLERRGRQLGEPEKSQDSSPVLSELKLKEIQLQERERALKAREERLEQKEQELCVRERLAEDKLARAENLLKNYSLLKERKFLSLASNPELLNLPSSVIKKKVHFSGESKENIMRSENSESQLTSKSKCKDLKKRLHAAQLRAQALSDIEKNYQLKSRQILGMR
Sequence of Hepatocyte growth factor receptor (Homo sapiens) (P08581 whole entry): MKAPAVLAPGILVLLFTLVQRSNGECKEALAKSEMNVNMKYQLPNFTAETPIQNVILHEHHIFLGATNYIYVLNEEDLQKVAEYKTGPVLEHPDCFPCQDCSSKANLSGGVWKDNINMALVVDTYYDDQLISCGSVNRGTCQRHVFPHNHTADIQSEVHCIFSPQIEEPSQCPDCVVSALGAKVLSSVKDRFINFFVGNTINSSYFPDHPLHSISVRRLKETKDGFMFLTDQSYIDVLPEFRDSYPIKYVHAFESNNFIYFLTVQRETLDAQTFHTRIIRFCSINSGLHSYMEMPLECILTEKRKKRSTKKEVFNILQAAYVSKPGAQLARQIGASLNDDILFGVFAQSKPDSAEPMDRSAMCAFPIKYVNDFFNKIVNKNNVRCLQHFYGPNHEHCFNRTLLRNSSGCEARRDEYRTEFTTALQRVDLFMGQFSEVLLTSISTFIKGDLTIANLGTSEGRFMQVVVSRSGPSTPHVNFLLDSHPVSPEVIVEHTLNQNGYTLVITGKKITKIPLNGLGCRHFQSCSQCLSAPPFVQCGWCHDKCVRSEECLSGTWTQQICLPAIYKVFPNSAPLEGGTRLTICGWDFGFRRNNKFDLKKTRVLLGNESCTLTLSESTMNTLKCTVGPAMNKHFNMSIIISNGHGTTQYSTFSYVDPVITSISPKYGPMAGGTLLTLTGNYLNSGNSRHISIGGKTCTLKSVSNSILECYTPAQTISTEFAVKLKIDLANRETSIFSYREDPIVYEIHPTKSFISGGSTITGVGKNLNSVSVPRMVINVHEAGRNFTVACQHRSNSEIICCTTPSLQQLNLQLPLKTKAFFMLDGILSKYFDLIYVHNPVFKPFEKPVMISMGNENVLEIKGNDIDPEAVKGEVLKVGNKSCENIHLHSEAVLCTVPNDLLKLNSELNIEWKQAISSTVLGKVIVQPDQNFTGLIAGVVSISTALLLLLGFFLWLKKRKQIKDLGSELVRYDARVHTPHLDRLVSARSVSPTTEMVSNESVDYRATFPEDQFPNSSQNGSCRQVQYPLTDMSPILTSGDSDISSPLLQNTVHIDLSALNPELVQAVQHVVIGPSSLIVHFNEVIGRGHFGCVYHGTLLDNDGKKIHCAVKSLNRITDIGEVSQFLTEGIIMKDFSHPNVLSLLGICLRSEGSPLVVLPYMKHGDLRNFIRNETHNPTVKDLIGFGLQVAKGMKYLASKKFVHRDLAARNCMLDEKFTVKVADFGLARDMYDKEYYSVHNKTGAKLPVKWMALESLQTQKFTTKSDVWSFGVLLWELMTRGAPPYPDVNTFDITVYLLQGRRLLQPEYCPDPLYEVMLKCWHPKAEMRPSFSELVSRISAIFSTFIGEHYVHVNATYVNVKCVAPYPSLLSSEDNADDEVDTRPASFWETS
Sequence of Angiopoietin-1 receptor (Homo sapiens) (Q02763 whole entry): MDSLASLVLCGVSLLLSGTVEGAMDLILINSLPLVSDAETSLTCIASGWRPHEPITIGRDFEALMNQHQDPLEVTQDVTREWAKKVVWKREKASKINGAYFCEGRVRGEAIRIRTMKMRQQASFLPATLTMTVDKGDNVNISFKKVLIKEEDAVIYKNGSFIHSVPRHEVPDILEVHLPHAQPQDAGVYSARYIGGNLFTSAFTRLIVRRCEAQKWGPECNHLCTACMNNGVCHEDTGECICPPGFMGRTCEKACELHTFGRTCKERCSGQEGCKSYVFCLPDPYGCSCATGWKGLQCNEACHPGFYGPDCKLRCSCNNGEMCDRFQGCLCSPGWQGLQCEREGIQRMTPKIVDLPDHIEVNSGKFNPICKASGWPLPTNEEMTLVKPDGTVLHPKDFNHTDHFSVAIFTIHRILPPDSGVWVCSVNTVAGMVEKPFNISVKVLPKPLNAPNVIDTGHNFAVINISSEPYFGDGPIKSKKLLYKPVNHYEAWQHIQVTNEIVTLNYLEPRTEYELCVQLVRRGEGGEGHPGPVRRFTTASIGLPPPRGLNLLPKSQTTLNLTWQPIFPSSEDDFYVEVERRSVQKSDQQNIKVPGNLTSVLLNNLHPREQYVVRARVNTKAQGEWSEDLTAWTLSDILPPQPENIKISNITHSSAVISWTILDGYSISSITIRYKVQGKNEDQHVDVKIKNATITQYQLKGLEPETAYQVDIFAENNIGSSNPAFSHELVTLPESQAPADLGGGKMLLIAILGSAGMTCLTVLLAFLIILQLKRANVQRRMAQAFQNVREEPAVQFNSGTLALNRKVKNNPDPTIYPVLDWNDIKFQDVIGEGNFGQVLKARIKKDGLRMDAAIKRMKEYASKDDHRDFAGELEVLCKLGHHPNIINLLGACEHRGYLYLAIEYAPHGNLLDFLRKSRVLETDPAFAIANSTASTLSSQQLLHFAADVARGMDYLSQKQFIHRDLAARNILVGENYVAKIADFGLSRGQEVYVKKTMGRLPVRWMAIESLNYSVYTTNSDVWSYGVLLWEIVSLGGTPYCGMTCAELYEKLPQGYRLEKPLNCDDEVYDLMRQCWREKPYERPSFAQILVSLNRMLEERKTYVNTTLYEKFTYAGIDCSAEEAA
Sequence of Dual specificity mitogen-activated protein kinase kinase 1 (Homo sapiens) (Q02750 whole entry): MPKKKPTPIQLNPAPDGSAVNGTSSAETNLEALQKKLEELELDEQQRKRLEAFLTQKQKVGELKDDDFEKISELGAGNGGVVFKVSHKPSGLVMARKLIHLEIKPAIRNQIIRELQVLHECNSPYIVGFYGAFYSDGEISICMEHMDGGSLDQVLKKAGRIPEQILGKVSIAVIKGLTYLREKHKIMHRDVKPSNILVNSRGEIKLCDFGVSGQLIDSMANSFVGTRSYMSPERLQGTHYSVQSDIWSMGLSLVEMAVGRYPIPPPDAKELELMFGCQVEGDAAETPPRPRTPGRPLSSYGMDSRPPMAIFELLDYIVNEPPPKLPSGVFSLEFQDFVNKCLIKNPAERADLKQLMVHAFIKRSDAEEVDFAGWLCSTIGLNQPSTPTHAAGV

## CCc1cc(NC(=O)Nc2ccc(-c3cnc(Nc4cc(N5CCN(CC)CC5)nc(C)n4)s3)cc2)no1
[1]
  inhibition: -4%
[2]
  inhibition: 96%
[3]
  GI50: 70 nM
[4]
  half-life: 4.3 h
[5]
  inhibition: 96%
[6]
  inhibition: -7%
[7]
  inhibition: 85%
[8]
  inhibition: 61%
[9]
  inhibition: -8%
[10]
  inhibition: 21%
[11]
  inhibition: 78%
[12]
  inhibition: 18%
[13]
  inhibition: 10%
[14]
  inhibition: 95%
[15]
  AUC(0-inf): 1080 ng·h/mL
[16]
  inhibition: 0%
[17]
  inhibition: 0%
[18]
  Vd: 21 L/kg
[19]
  inhibition: 45%
[20]
  inhibition: 21%
[21]
  inhibition: 9%
[22]
  clearance: 31.6 mL/min/kg
[23]
  inhibition: -3%
[24]
  inhibition: 14%
[25]
  inhibition: 86%
[26]
  Cmax: 122 ng/mL
[27]
  inhibition: 17%
[28]
  IC50: 10 nM
[29]
  inhibition: -1%
[30]
  IC50: 10 nM
MV4-11 [31]
  TGI: Active
[32]
  GI50: 4 nM
[33]
  Vd: 8.2 L/kg
Mus musculus [34]
  Activity: 90%
[35]
  GI50: 2 nM
[36]
  inhibition: 41%
Mus musculus [37]
  Activity: 45%
[38]
  AUC(0-inf): 942 ng·h/mL
[39]
  Cmax: 168 ng/mL
[40]
  inhibition: 85%
MV4-11 [41]
  TGI: Active
